The text below walks through data of article PMC10855552, “Hydrophilic Reduction-Resistant Spin Labels of Pyrrolidine and Pyrroline Series from 3,4-Bis-hydroxymethyl-2,2,5,5-tetraethylpyrrolidine-1-oxyl” (International Journal of Molecular Sciences, 2024).

Data set [1] can be described thus: Partition in octanol/aqueous 5 mM phosphate-citrate-borate buffer pH 7.4, estimated from EPR amplitudes. The note with it: for partition octanol/buffer, result in words: after shaking with buffer pH 7.4; for partition coefficient (Kp): octanol/aqueous 5 mM phosphate-citrate-borate buffer pH 7.4. The class given is physicochemical. As to the method: Partition in octanol-water mixtures for ionizable compounds may depend on pH, and the pH changes may result from addition of the compound. Therefore, phosphate-citrate-borate buffer (5 mM, pH 7.4) was used for Kp measurements to make the partition closer to physiological conditions. […] Although monoamino derivatives 11 and 13 mainly exist in protonated form at pH 7.4, they still remain lipophilic and, therefore, should permeate cells. Amino groups are known to provide higher retention/intracellular accumulation due to transmembrane potential or ion-trapping effect. This effect was exploited in design of nitroxide contrast agents for MRI and radioprotectors. Cellular accumulation of spin labels like 11 and 13 may help to increase efficacy spin labeling using CuAAC or SPAAC.
(§1) For kinetic measurements in water, stock solutions of nitroxide, ascorbic acid and glutathione in phosphate-citrate-borate buffer (5 mM, pH 7.4) were prepared, and pH was adjusted to 7.4 with NaOH or HCl. All the solutions were deoxygenated with argon, carefully and quickly mixed in a small tube to attain final concentrations (nitroxide, 0.2–04 mM; GSH, 5 mM; and ascorbate, 100–300 mM) and were placed into an EPR capillary (50 μL). The choice of acsorbate concentration is a compromise between the low reduction rate, which requires very long experiment time and deviations of the kinetics from linearity at higher ascorbate concentrations due to ionic strength effects. Since the ascorbate oxidation is slow under these conditions, the 5 mM concentration of GSH was sufficient to suppress the reverse reaction of ascorbate radical with the hydroxylamine, because the rate of the ascorbate radical formation was low. The increase in GSH concentration produced little effect on the final reduction rate constant values. The capillary was sealed on both sides and placed into the EPR resonator. The decay of amplitude of the low-field component of the EPR spectrum was followed to obtain the kinetics. The initial part of the decay curves (up to 20 min) was used for fitting. Kinetics of the decay was fitted to a monoexponential function to calculate the first-order rate constants. Then, these constants were divided by the concentration of ascorbic acid to calculate the second-order reaction constants. Partition coefficients in a water–octanol mixture were estimated from the amplitudes of the EPR spectra of a nitroxide in water after extensive shaking with different portions of added octanol and separation using centrifugation.

A short description of data set [2]: Kinetics of nitroxide reduction with ascorbate in the presence of glutathione, followed by EPR. It is filed as physicochemical. To be noted: ascorbate 100–300 mM, glutathione 5 mM, 5 mM phosphate-citrate-borate buffer, pH 7.4, 25 °C; values are kred × 10^4. As to the method: as §1
Data set [3] in a line: pH dependence of EPR spectra (titration), pK by fitting. It is filed as physicochemical. To be noted: for pK (pH dependence of EPR spectra): amino group protonation, 5 mM phosphate-citrate-borate buffer, 25 °C; for pK, first protonation (free base to monocation): transition at high pH; for pK, first protonation (free base to monocation) / pKa, second protonation (monocation to dication): EPR titration; for pKa, second protonation (monocation to dication): transition at low pH. As to the method: The pH-dependences of the EPR spectra were investigated using the 0.2 mM solutions of the nitroxides in 5 mM phosphate-citrate-borate buffer on a Bruker ER-200D-SRC spectrometer in 50 µL glass capillary for 0.2 mM radical solutions. Spectrometer settings: frequency, 9.87 GHz; microwave power, 5.0 mW; modulation amplitude, 0.1 mT; time constant, 50–100 ms; and conversion time, 50.12 ms. Small portions of 0.1–1 N HCl or 0.1–1 N NaOH were added to the stirred solution of a nitroxide in buffer at 25 °C, while the pH was controlled using pH-meter. After the equilibrium was established, the samples were taken from the solution and the EPR spectra were measured. The experimental points were fitted with the Equation (1) to obtain the pKa values. (1) aN(pH)=(p1+p2×10^pK1−pH+p3×10^pK1+pK2−2×pH)/1+10^pK1−pH+10^pK1+pK2−2×pH

For data set [4] the following is noted: values are kred × 10^4; cited from earlier work.
A short description of the next data set: Solubility in water. It is filed as physicochemical.

Like-named read-outs stand apart in the source and are kept apart here.

On to “3-((2,5-Dioxo-2,5-dihydro-1H-pyrrol-1-yl)methyl)-2,2,5,5-tetraethyl-4-((trimethylammonio)methyl)-2,5-dihydro-1H-pyrrol-1-oxyl monoiodide [16b]”, for which the “partition octanol/buffer, result in words” value (shortened to “partition octanol/buffer”) in data set [1] is recorded as “not detected in octanol”.

Turning to “3-((2,5-Dioxo-2,5-dihydro-1H-pyrrol-1-yl)methyl)-2,2,5,5-tetraethyl-4-((trimethylammonio)methyl)pyrrolidin-1-oxyl monoiodide [16a]”, in data set [1], the “partition octanol/buffer” value is “not detected in octanol”.

For the compound “3-(Azidomethyl)-2,2,5,5-tetraethyl-4-((trimethylammonio)methyl)-2,5-dihydro-1H-pyrrol-1-oxyl monoiodide [17b]”, the “kred × 10^4 (rate of reduction with ascorbate)” value in data set [2] is 16 ± 3.0 M^−1 s^−1. In data set [1], the “partition octanol/buffer” value is recorded as “not detected in octanol”.

In the case of “3-(Azidomethyl)-2,2,5,5-tetraethyl-4-((trimethylammonio)methyl)pyrrolidin-1-oxyl monoiodide [17a]”, in data set [2], the “kred × 10^4 (rate of reduction with ascorbate)” value turned out to be 3.0 ± 1.0 M^−1 s^−1. Also, the “partition octanol/buffer” value in data set [1] is listed as “not detected in octanol”.

For `CCC1(CC)C(CN=[N+]=[N-])C(CN(C)C)C(CC)(CC)N1[O]` (stereo not shown) [11a, 3-(Azidomethyl)-4-((dimethylamino)methyl)-2,2,5,5-tetraethylpyrrolidin-1-oxyl], the “kred × 10^4 (rate of reduction with ascorbate)” value in data set [2] was 4.0 ± 1.0 M^−1 s^−1. In data set [3], the “pK (pH dependence of EPR spectra)” value is “ca. 9”. For the same compound, the “partition coefficient (Kp)” value in data set [1] is 52 ± 5.

Regarding `CCC1(CC)C(CN=[N+]=[N-])=C(CN(C)C)C(CC)(CC)N1[O]` [11b, 3-(Azidomethyl)-4-((dimethylamino)methyl)-2,2,5,5-tetraethyl-2,5-dihydro-1H-pyrrol-1-oxyl], the “kred × 10^4 (rate of reduction with ascorbate)” value in data set [2] was determined as 15 ± 4.0 M^−1 s^−1. Further, in data set [3], the “pK (pH dependence of EPR spectra)” value is reported as “ca. 9”. The “partition coefficient (Kp)” value in data set [1] is 15 ± 1.

For `CCC1(CC)C(CN)C(CN=[N+]=[N-])C(CC)(CC)N1[O]` (stereo not shown) [13a, 3-(Aminomethyl)-4-(azidomethyl)-2,2,5,5-tetraethylpyrrolidin-1-oxyl], the “kred × 10^4 (rate of reduction with ascorbate)” value in data set [2] turned out to be 6.3 ± 0.9 M^−1 s^−1. Further, the “pK (pH dependence of EPR spectra)” value in data set [3] is given as “ca. 9”. The “partition coefficient (Kp)” value in data set [1] was 350 ± 35.

On to `CCC1(CC)C(CN)=C(CN=[N+]=[N-])C(CC)(CC)N1[O]` [13b, 3-(Aminomethyl)-4-(azidomethyl)-2,2,5,5-tetraethyl-2,5-dihydro-1H-pyrrol-1-oxyl], for which the “kred × 10^4 (rate of reduction with ascorbate)” value in data set [2] came to 7.6 ± 0.3 M^−1 s^−1. Also, the “pK (pH dependence of EPR spectra)” value in data set [3] is reported as “ca. 9”. Also, in data set [1], the “partition coefficient (Kp)” value is given as 45 ± 2.

On to `CCC1(CC)C(CN)C(CN(C)C)C(CC)(CC)N1[O]` (stereo not shown) [14a, 3-(Aminomethyl)-4-((dimethylamino)methyl)-2,2,5,5-tetraethylpyrrolidin-1-oxyl], for which, in data set [2], the “kred × 10^4 (rate of reduction with ascorbate)” value stood at 6.4 ± 1.0 M^−1 s^−1. Further, in data set [3], the “pK, first protonation (free base to monocation)” value is on record as “ca. 11” and the “pKa, second protonation (monocation to dication)” value (“pKa, second protonation” below) is “ca. 3”. The “pKa, second protonation” value in data set [3] (listed as N,N-dimethyl-3,4-bis-(aminomethyl)-2,2,5,5-tetraethylpyrrolidine-1-oxyl) is recorded as 3.

With `CCC1(CC)C(CN)=C(CN(C)C)C(CC)(CC)N1[O]` [14b, 3-(Aminomethyl)-4-((dimethylamino)methyl)-2,2,5,5-tetraethyl-2,5-dihydro-1H-pyrrol-1-oxyl], the “kred × 10^4 (rate of reduction with ascorbate)” value in data set [2] is 8 ± 1.0 M^−1 s^−1. Further, in data set [3], the “pK, first protonation (free base to monocation)” value was “ca. 11” and the “pKa, second protonation” value is listed as “ca. 3”. In addition, the “partition coefficient (Kp)” value in data set [1] is on record as 7 ± 0.3.

As for `CCC1(CC)C(CN(C)C)C(CN2C(=O)C=CC2=O)C(CC)(CC)N1[O]` (stereo not shown) [15a, 3-((Dimethylamino)methyl)-4-((2,5-dioxo-2,5-dihydro-1H-pyrrol-1-yl)methyl)-2,2,5,5-tetraethylpyrrolidin-1-oxyl], the “pK (pH dependence of EPR spectra)” value in data set [3] is reported as “ca. 9”.

Regarding `CCC1(CC)C(CN(C)C)=C(CN2C(=O)C=CC2=O)C(CC)(CC)N1[O]` [15b, 3-((Dimethylamino)methyl)-4-((2,5-dioxo-2,5-dihydro-1H-pyrrol-1-yl)methyl)-2,2,5,5-tetraethyl-2,5-dihydro-1H-pyrrol-1-oxyl], the “pK (pH dependence of EPR spectra)” value in data set [3] was “ca. 9”.

With `CCC1(CC)C(CO)C(CO)C(CC)(CC)N1[O]` (stereo not shown) [compound 1, 3,4-bis-hydroxymethyl-2,2,5,5-tetraethylpyrrolidine-1-oxyl], the “kred × 10^4 (rate of reduction with ascorbate)” value in data set [4] was 3.3 ± 0.8 [26] M^−1 s^−1. Besides, the “partition coefficient (Kp)” value in data set [1] was 41 ± 2.

`CCC1(CC)C(CO)C(CN=[N+]=[N-])C(CC)(CC)N1[O]` (stereo not shown) [compound 5, 3-(Azidomethyl)-2,2,5,5-tetraethyl-4-(hydroxymethyl)pyrrolidin-1-oxyl]: the solubility in water entry in “Solubility in water” was “poorly soluble in water”.

Consider `CCC1(CC)C(CN)C(CO)C(CC)(CC)N1[O]` (stereo not shown) [compound 6, 3-(Aminomethyl)-2,2,5,5-tetraethyl-4-(hydroxymethyl)pyrrolidin-1-oxyl], for which, in data set [3], the “pK (pH dependence of EPR spectra)” value was “ca. 9”.

As to `CCC1(CC)C(CO)C(CN2C(=O)C=CC2=O)C(CC)(CC)N1[O]` (stereo not shown) [compound 7, 3-((2,5-Dioxo-2,5-dihydro-1H-pyrrol-1-yl)methyl)-2,2,5,5-tetraethyl-4-(hydroxymethyl)pyrrolidin-1-oxyl], in “Solubility in water”, the solubility in water result was “poorly soluble in water”. For the same compound, the “partition coefficient (Kp)” value in data set [1] was 84 ± 2.

Consider `CCC1(CC)C(CO)C(CNC(=O)OC(C)(C)C)C(CC)(CC)N1[O]` (stereo not shown) [compound 8, 3-(((tert-Butoxycarbonyl)amino)methyl)-2,2,5,5-tetraethyl-4-(hydroxymethyl)pyrrolidin-1-oxyl], for which the “kred × 10^4 (rate of reduction with ascorbate)” value in data set [2] turned out to be 6.0 ± 2.0 M^−1 s^−1.

In the case of `CCC1(CC)C(CNC(=O)OC(C)(C)C)C(COS(C)(=O)=O)C(CC)(CC)N1[O]` (stereo not shown) [compound 9, 3-(((tert-Butoxycarbonyl)amino)methyl)-2,2,5,5-tetraethyl-4-(((methylsulfonyl)oxy)methyl)pyrrolidin-1-oxyl], the “kred × 10^4 (rate of reduction with ascorbate)” value in data set [2] is given as 3.0 ± 1.0 M^−1 s^−1.

Take `CCC1(CC)C(CN=[N+]=[N-])C(CNC(=O)OC(C)(C)C)C(CC)(CC)N1[O]` (stereo not shown) [compound 10, 3-(Azidomethyl)-4-((tert-butoxycarbonylamino)methyl)-2,2,5,5-tetraethylpyrrolidin-1-oxyl]: the “kred × 10^4 (rate of reduction with ascorbate)” value in data set [2] is 3.0 ± 1.0 M^−1 s^−1.

In the case of `CCC1(CC)C(CN=[N+]=[N-])C(Cn2nnc(C(=O)[O-])c2C(=O)O)C(CC)(CC)N1[O].[Na+]` (stereo not shown) [compound 20, 3-(Azidomethyl)-4-((4,5-dicarboxy-1H-1,2,3-triazol-1-yl)methyl)-2,2,5,5-tetraethylpyrrolidin-1-oxyl monosodium salt], in data set [2], the “kred × 10^4 (rate of reduction with ascorbate)” value is 5.9 ± 1.2 M^−1 s^−1. Besides, the “partition octanol/buffer” value in data set [1] is recorded as “not detected in octanol”.

Take `CCC1(CC)CC(C(=O)O)C(CC)(CC)N1[O]` (stereo not shown) [compound 21, 3-carboxy-2,2,5,5-tetraethylpyrrolidine-1-oxyl, reference compound]: the “kred × 10^4 (rate of reduction with ascorbate)” value in data set [4] was 12.5 ± 0.3 [22] M^−1 s^−1. In addition, the “partition coefficient (Kp)” value in data set [1] is recorded as 270.

As to `CCC1(CC)C(CO)=C(CO)C(CC)(CC)N1[O]` [compound 22, 2,2,5,5-tetraethyl-3,4-bis(hydroxymethyl)-2,5-dihydro-1H-pyrrol-1-oxyl, reference compound], in data set [2], the “kred × 10^4 (rate of reduction with ascorbate)” value was 3.4 ± 0.1 M^−1 s^−1. The “partition coefficient (Kp)” value in data set [1] is on record as 37 ± 2.
